These results are taken from ChEMBL document CHEMBL3297661, “1-Substituted-5-[(3,5-dinitrobenzyl)sulfanyl]-1H-tetrazoles and their isosteric analogs: A new class of selective antitubercular agents active against drug-susceptible and multidrug-resistant mycobacteria” (Eur J Med Chem, 2014).

For orientation: MIC means the lowest concentration that inhibits growth of the organism. A high value points to a less susceptible organism.

What all share (assay type): functional
Assay [1] relates to Mycobacterium kansasii. Description: Antimycobacterial activity against Mycobacterium kansasii CNCTC My 235/80 after 21 days by micromethod. The note with it: CNCTC My 235/80, 504 h.
The subject of assay [2] is Mycobacterium tuberculosis. Description: Antimycobacterial activity against Mycobacterium tuberculosis CNCTC My 331/88 after 21 days by micromethod. The note with it: CNCTC My 331/88, 504 h.
In assay [3] the test system is Mycobacterium avium. Description: Antimycobacterial activity against Mycobacterium avium CNCTC My 330/88 after 21 days by micromethod. The note with it: CNCTC My 330/88, 504 h.
For assay [4], the system named is Mycobacterium kansasii. Description: Antimycobacterial activity against Mycobacterium kansasii 6509/96 after 7 days by micromethod. The note with it: 6509/96, 168 h.
The subject of assay [5] is Mycobacterium kansasii. Description: Antimycobacterial activity against Mycobacterium kansasii CNCTC My 235/80 after 14 days by micromethod. As to conditions: CNCTC My 235/80, 336 h.
Assay [6] relates to Mycobacterium avium. As to the kind of experiment: Antimycobacterial activity against Mycobacterium avium CNCTC My 330/88 after 14 days by micromethod. The note with it: CNCTC My 330/88, 336 h.
Assay [7] deals with Mycobacterium tuberculosis. Description: Antimycobacterial activity against Mycobacterium tuberculosis CNCTC My 331/88 after 14 days by micromethod. The note with it: CNCTC My 331/88, 336 h.
Assay [8] relates to Mycobacterium kansasii. Description: Antimycobacterial activity against Mycobacterium kansasii CNCTC My 235/80 after 7 days by micromethod. As to conditions: CNCTC My 235/80, 168 h.
Assay [9] relates to Mycobacterium kansasii. As to the kind of experiment: Antimycobacterial activity against Mycobacterium kansasii 6509/96 after 14 days by micromethod. The note with it: 6509/96, 336 h.
Assay [10] deals with Mycobacterium kansasii. As to the kind of experiment: Antimycobacterial activity against Mycobacterium kansasii 6509/96 after 21 days by micromethod. The note with it: 6509/96, 504 h.

≈ marks a conversion by molar mass, not a printed value.

`COc1ccccc1-n1nnnc1SCc1cc([N+](=O)[O-])cc([N+](=O)[O-])c1`: the minimal inhibitory concentration (MIC) in assay [1], in assay [2], in assay [3], in assay [4], in assay [5] and in assay [6] was 125 µM (≈ 48.5 µg/mL) throughout. The MIC in assay [7], in assay [8], in assay [9] and in assay [10] was 125 µM (≈ 48.5 µg/mL) in each case.
With `c1ccc(C[Se]c2nnnn2C2CCCCC2)cc1`, the MIC in assay [1] was 32 µM (≈ 10.3 µg/mL); in [2] it was 125 µM (≈ 40.2 µg/mL); in [3], 125 µM (≈ 40.2 µg/mL); in [4], 62 µM (≈ 19.9 µg/mL); in assay [5], 32 µM (≈ 10.3 µg/mL); in assay [6], 125 µM (≈ 40.2 µg/mL). The MIC was found to be 125 µM (≈ 40.2 µg/mL) in assay [7], 8 µM (≈ 2.57 µg/mL) in assay [8], 250 µM (≈ 80.3 µg/mL) in assay [9] and 500 µM (≈ 161 µg/mL) in assay [10].
For the compound `N#CSCc1cc([N+](=O)[O-])cc([N+](=O)[O-])c1`, the MIC in [1] came out at 16 µM (≈ 3.83 µg/mL); in assay [2], 4 µM (≈ 0.957 µg/mL); in [3], 62 µM (≈ 14.8 µg/mL); in [4], 4 µM (≈ 0.957 µg/mL); in assay [5], 8 µM (≈ 1.91 µg/mL); in assay [6] it was 32 µM (≈ 7.65 µg/mL). The MIC is 4 µM (≈ 0.957 µg/mL) in [7], 2 µM (≈ 0.478 µg/mL) in assay [8], 8 µM (≈ 1.91 µg/mL) in assay [9] and 16 µM (≈ 3.83 µg/mL) in assay [10].
Regarding `c1ccc(C[Se]c2nnnn2-c2ccccc2)cc1`, the minimum inhibitory concentration (MIC) in assay [1] worked out at 16 µM (≈ 5.04 µg/mL); in assay [2], 125 µM (≈ 39.4 µg/mL); in [3] it was 125 µM (≈ 39.4 µg/mL); in [4], 32 µM (≈ 10.1 µg/mL); in assay [5], 8 µM (≈ 2.52 µg/mL); in assay [6], 62 µM (≈ 19.5 µg/mL). In addition, the MIC amounted to 125 µM (≈ 39.4 µg/mL) in assay [7], 2 µM (≈ 0.63 µg/mL) in assay [8], 125 µM (≈ 39.4 µg/mL) in assay [9] and 250 µM (≈ 78.8 µg/mL) in assay [10].
Regarding `Cc1ccc(-n2nnnc2SCc2cc([N+](=O)[O-])cc([N+](=O)[O-])c2)cc1C`, the minimal inhibitory concentration (MIC) in assay [1] is 250 µM (≈ 96.6 µg/mL); in assay [2], 500 µM (≈ 193 µg/mL); in assay [3], 250 µM (≈ 96.6 µg/mL); in assay [4] it was 250 µM (≈ 96.6 µg/mL); in assay [5], 250 µM (≈ 96.6 µg/mL); in assay [6], 250 µM (≈ 96.6 µg/mL). Further, the MIC is 500 µM (≈ 193 µg/mL) in assay [7], 250 µM (≈ 96.6 µg/mL) in assay [8], 250 µM (≈ 96.6 µg/mL) in [9] and 250 µM (≈ 96.6 µg/mL) in assay [10].
Regarding `Nc1cc(N)cc(CSc2nnnn2-c2ccccc2)c1`, the MIC in assay [1] stood at 1000 µM (≈ 298 µg/mL); in assay [2], 500 µM (≈ 149 µg/mL); in assay [3] it was 1000 µM (≈ 298 µg/mL); in assay [4], 250 µM (≈ 74.6 µg/mL); in assay [5], 1000 µM (≈ 298 µg/mL); in [6], 1000 µM (≈ 298 µg/mL). Besides, the MIC was 250 µM (≈ 74.6 µg/mL) in [7], 250 µM (≈ 74.6 µg/mL) in assay [8], 1000 µM (≈ 298 µg/mL) in assay [9] and 1000 µM (≈ 298 µg/mL) in assay [10].
Consider `COc1ccc(-n2nnnc2[S+]([O-])Cc2cc([N+](=O)[O-])cc([N+](=O)[O-])c2)cc1` (stereo not given), for which the MIC amounted to 125 µM (≈ 50.5 µg/mL) in assay [1]; 62 µM (≈ 25.1 µg/mL) in [2]; 250 µM (≈ 101 µg/mL) in assay [3]; 32 µM (≈ 12.9 µg/mL) in [4]; 125 µM (≈ 50.5 µg/mL) in assay [5]; 250 µM (≈ 101 µg/mL) in assay [6]. For the same compound, the MIC in assay [7] was 62 µM (≈ 25.1 µg/mL); in assay [8], 62 µM (≈ 25.1 µg/mL); in [9], 125 µM (≈ 50.5 µg/mL); in [10] it was 125 µM (≈ 50.5 µg/mL).
Regarding `COc1ccc(-n2nnnc2S(=O)(=O)Cc2cc([N+](=O)[O-])cc([N+](=O)[O-])c2)cc1`, the minimum inhibitory concentration (MIC) in [1] was determined as 250 µM (≈ 105 µg/mL); in [2] it was 8 µM (≈ 3.36 µg/mL); in assay [3], 125 µM (≈ 52.5 µg/mL); in assay [4] it was 125 µM (≈ 52.5 µg/mL); in assay [5], 250 µM (≈ 105 µg/mL); in [6], 125 µM (≈ 52.5 µg/mL). Moreover, the minimal inhibitory concentration (MIC) came out at 8 µM (≈ 3.36 µg/mL) in assay [7], 125 µM (≈ 52.5 µg/mL) in [8], 125 µM (≈ 52.5 µg/mL) in assay [9] and 125 µM (≈ 52.5 µg/mL) in assay [10].
`O=[N+]([O-])c1cc(C[Se]c2nnnn2-c2ccc(Br)cc2)cc([N+](=O)[O-])c1`: the minimum inhibitory concentration (MIC) is 4 µM (≈ 1.94 µg/mL) in [1]; 2 µM (≈ 0.968 µg/mL) in assay [2]; 125 µM (≈ 60.5 µg/mL) in [3]; 2 µM (≈ 0.968 µg/mL) in [4]; 4 µM (≈ 1.94 µg/mL) in [5]; 125 µM (≈ 60.5 µg/mL) in assay [6]. The MIC in assay [7] is 2 µM (≈ 0.968 µg/mL); in assay [8] it was 2 µM (≈ 0.968 µg/mL); in assay [9], 4 µM (≈ 1.94 µg/mL); in assay [10] it was 8 µM (≈ 3.87 µg/mL).
As to `CCN(CC)c1ccc(-n2nnnc2SCc2cc([N+](=O)[O-])cc([N+](=O)[O-])c2)cc1`, the MIC worked out at 32 µM (≈ 13.7 µg/mL) in assay [1]; 2 µM (≈ 0.859 µg/mL) in assay [2]; 62 µM (≈ 26.6 µg/mL) in assay [3]; 8 µM (≈ 3.44 µg/mL) in assay [4]; 8 µM (≈ 3.44 µg/mL) in [5]; 62 µM (≈ 26.6 µg/mL) in assay [6]. The minimal inhibitory concentration (MIC) in [7] is 2 µM (≈ 0.859 µg/mL); in assay [8], 4 µM (≈ 1.72 µg/mL); in assay [9], 16 µM (≈ 6.87 µg/mL); in [10], 62 µM (≈ 26.6 µg/mL).
